What was measured:
Caco2 cells = assay: Lipid transport (14C-fatty acid release) through Caco2 monolayer in transwell system; type: cell-based, human; conditions: 20 μM, 24 h, vs DMSO; FIG. 8
Description: Lipid transport studies were assessed in Caco2 cells seeded in trans-wells. 1.5×10^5 cells were seeded into a 12-well cell culture insert of 1 μm pore size Trans-well and maintained in for 14 consecutive days with media change every two days. For the lipids uptake and release, the apical side of the membrane was loaded with radioactive ^14C-palmitic acid (0.2 μCi), oleic acid (1 mM), and taurocholic acid (2 mM) in DMEM high glucose 10% FBS. The basal medium contained DMEM high glucose 0.1% FBS. After 24 hours of incubation, cell lysates and the apical and basolateral medium was collected and the ^14C-palmitic acid was measured in a scintillation counter for aliquots of apical and basal medium and for cell lysate. The same protocol was used in Caco2 cells that were treated with CRT0066101 (3 and 5 μM) for 24 h (added together with the mentioned radioactive fatty acid cocktail).
In order to test the potential of PKD inhibitors to restrict lipid transport via epithelial monolayer, we employed Caco2 cells seeded into the Transwells system. Briefly, we plated 1.5×10^5 cells seeded into a 12-well cell culture inserts of 1-μm pore size Transwell and maintained in for 14 consecutive days with media change every 2 days. For the lipid uptake and release, the apical side of the membrane was loaded with radioactive 14C-palmitic acid (0.2 μCi), oleic acid (1 mM), and taurocholic acid (2 mM) in DMEM high glucose 10% FBS. The basal medium contained DMEM high glucose 0.1% FBS. After 24 h of incubation, cell lysates and the apical and basolateral medium were collected and the 14C-palmitic acid was measured in a scintillation counter for aliquots of apical and basal medium and for cell lysate. To assess the efficiency of different PKD inhibitors, Caco2 cells were treated with either CRT0066101 (5 μM), CID2011756 (20 μM), CID755673 (20 μM), 1-NM-PP1 (20 μM), or control solvent solution (DMSO) for 24 h (added together with the mentioned radioactive FA cocktail).

LDLR-deficient mice = conditions: cited from earlier work
male C57BL/6 mice on HFD = assay: Oral PKD inhibitor in HFD-fed C57BL/6 mice (diet-induced obesity and diabetes); type: in vivo, mouse; conditions: oral administration, mice; also said to prevent hyperlipidemia and diabetes and improve microflora
Description: Mice body weight development was closely monitored and reported here on a weekly basis when mice were on a specified diet. All experiments were performed in male mice.
PKD inhibitor CRT0066101 was dissolved in water (10 mg/kg) and administered orally to the mice by daily gavage, while the control mice were gavaged with water. Mice were maintained on the specified diets and had ab libitum access to food and water. C57BL/6 mice were administered CRT inhibitor treatment at 4-weeks of age, while for the rescue experiment, inhibitor was given under the same circumstances but treatment started only after 7 weeks of HFD feeding. Intestinal barrier permeability was further assessed 1 hour after oral gavage of FITC-Dextran 4.
Energy expenditure, food intake, and activity measurements were obtained in a PhenoMaster (TSE Systems) as previously described (El-Merahbi, Viera et al., 2020, Trujillo Viera, El-Merahbi et al., 2016). Briefly, mice were kept in separate metabolic cages with unlimited access to water and to the specified diet. After 48 hours of acclimation, data was collected every 10 min including photobeam breaks, oxygen consumption, carbon dioxide dissipation, and food and water consumption. Results in bars represent the average of each night/day cycle.
A glucose tolerance test (GTT) was performed after overnight fasting. Mice blood glucose was assessed before and 15, 30, 60, 90, and 120 minutes after intraperitoneal injection of glucose (2 g/kg). For the Insulin tolerance test (ITT), the same measurements were performed after 4 hours of fasting and intraperitoneal injection of 0.5 U/kg of recombinant insulin. For glucose measurements, one blood drop was drawn from the tail tip into a test strip and measured with a glucometer (Accu-Chek® Roche).
Lipids tolerance test was performed as described previously (Wang, Rong et al., 2016b). Briefly, overnight fasted mice were gavaged with olive oil (10 μL/g body weight). Blood was collected at indicated times for measurement of serum triglycerides content. For lipids absorption under tyloxapol treatment, 250 μg/g of body weight were i.p. injected to mice 30 minutes before the gavage of olive oil 5 μL/g body weight.
Liver triglycerides were measured by homogenization of 50 mg of liver in 500 uL of lysis buffer and lipids extraction in methanol:chloroform, phase extraction and evaporation. The lipids were redissolved in DMSO and triglycerides quantified with the mentioned kit and according to the manufacturers' instructions.
The bedding of single-caged mice was collected and the ingested food ingestion from the individual mice was assessed. All the stools were manually collected. After overnight dissecation at 60° C., the samples were weighted and frozen for further analysis. The amount of feces produced per mouse was compared to the amount of food consumed and the weight gain. About 3 g of dried feces material were homogenized and 1 g was pressed into a tablet and accurately weighted. Calorie content from feces and diet was measured in duplicates in a 6400 Automatic Isoperibol calorimeter (Parr Instrument Company). To analyze energy excreted, the amount of energy in feces was compared to the amount of energy ingested (the product between grams of food and caloric content of the food). Lipids extraction from feces was performed as previously described (Kraus, Yang et al., 2015).
Proteins from tissues and cell culture were extracted with RIPA buffer supplemented with phosphatase and protease inhibitor (PPI, Thermo Fisher Scientific). Protein concentration was measured by Pierce™ BCA Protein Assay Kit (Thermo Fisher Scientific) following the manufacturer's protocol. Reduced protein extracts were separated on 10% SDS-PAGE gels by electrophoresis and transferred to PVDF membranes under wet transfer. Membranes were blocked in 5% (w/v) milk in TBS-T before overnight probing with indicated primary antibodies at 4° C., followed by TBS-T washes and incubation with corresponding secondary antibody.

Row | SMILES | lipid transport through the Caco2 monolayer (Caco2 cells) | course of atherosclerosis (LDLR-deficient mice) | obesity induced by a high-fat diet (summary statement) (male C57BL/6 mice on HFD)
1 | O=C(Nc1ccc(CN2CCOCC2)cc1)c1ccc(-c2cccc(Cl)c2)o1 [CID2011756] | significant reduction in lipid transport |  | 
2 | CC(C)(C)n1nc(Cc2cccc3ccccc23)c2c(N)ncnc21 [1-NM-PP1, 1-(tert-butyl)-3-(nafthalen-1-ylmethyl)-1H-pirazol[3,4-d]pyrimidine-4-amine] | significant reduction in lipid transport |  | 
3 | CC(C)c1c(C(=O)Nc2ccccc2)c(-c2ccccc2)c(-c2ccc(F)cc2)n1CC[C@@H](O)C[C@@H](O)CC(=O)O [Atorvastatin] |  | efficiently attenuating the course of atherosclerosis | 
4 | O=C1NCCCc2c1oc1ccc(O)cc21 [CID755673] | significant reduction in lipid transport |  | significantly reduces obesity induced by a high-fat diet
